This note sets out measurements from patent publication EP4745137A1 (Gluetacs Therapeutics (Shanghai) Co., Ltd., priority 2023, dated 2025).

Where only a bound is given, the exact number is not on record here.

Test [1] concerns the target T1, CK1α (Homo sapiens, UniProt P48729+Q96SW2).
T1 construct: endogenous in cells; host or cells: hPBMCs (Milecell Biotechnologies)
Briefly: Western-blot assay of substrate protein degradation in hPBMCs, CK1α. Format: cell-based. To be noted: 24 hours of compound treatment, compounds tested at 50 nM and 500 nM (concentration of the table not stated).

Test [2] has as its target T2, IKZF3 (Homo sapiens, UniProt Q96SW2+Q9UKT9).
T2 construct: endogenous in cells; host or cells: hPBMCs (Milecell Biotechnologies)
Briefly: Western-blot assay of substrate protein degradation in hPBMCs, IKZF3. Format: cell-based. The following applies: 24 hours of compound treatment, compounds tested at 50 nM and 500 nM (concentration of the table not stated).

The target in test [3] is T3, IKZF2 (Homo sapiens, UniProt Q96SW2+Q9UKS7).
T3 construct: endogenous in cells; host or cells: hPBMCs (Milecell Biotechnologies)
T3 sequence (Q9UKS7 whole entry): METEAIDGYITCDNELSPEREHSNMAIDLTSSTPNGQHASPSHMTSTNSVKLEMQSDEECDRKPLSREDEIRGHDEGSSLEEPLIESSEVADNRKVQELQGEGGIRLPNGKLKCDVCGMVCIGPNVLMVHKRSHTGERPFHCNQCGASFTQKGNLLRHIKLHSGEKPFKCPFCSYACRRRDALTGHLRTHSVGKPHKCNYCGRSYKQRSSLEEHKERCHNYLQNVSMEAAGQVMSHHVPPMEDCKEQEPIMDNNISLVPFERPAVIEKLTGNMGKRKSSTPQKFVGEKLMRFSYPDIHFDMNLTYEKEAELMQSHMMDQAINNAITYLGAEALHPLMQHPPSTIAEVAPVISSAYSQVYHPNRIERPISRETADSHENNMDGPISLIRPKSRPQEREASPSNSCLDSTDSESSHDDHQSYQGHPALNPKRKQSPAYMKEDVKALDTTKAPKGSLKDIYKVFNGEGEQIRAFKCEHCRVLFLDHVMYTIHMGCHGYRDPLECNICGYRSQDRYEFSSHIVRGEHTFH
T3 sequence (Q96SW2 whole entry): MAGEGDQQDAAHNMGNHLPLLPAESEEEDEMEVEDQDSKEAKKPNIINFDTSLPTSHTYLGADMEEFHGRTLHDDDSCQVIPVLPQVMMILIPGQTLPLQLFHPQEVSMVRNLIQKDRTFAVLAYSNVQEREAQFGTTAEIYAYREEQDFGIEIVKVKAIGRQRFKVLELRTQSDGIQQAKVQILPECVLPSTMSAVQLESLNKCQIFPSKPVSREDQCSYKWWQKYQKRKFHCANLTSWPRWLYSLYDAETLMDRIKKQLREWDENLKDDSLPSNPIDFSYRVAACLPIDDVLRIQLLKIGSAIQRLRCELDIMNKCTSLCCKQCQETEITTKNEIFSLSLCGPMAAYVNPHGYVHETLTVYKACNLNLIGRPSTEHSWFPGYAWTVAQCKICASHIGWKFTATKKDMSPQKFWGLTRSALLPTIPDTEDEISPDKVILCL
T3 sequence (Q16531 whole entry partner): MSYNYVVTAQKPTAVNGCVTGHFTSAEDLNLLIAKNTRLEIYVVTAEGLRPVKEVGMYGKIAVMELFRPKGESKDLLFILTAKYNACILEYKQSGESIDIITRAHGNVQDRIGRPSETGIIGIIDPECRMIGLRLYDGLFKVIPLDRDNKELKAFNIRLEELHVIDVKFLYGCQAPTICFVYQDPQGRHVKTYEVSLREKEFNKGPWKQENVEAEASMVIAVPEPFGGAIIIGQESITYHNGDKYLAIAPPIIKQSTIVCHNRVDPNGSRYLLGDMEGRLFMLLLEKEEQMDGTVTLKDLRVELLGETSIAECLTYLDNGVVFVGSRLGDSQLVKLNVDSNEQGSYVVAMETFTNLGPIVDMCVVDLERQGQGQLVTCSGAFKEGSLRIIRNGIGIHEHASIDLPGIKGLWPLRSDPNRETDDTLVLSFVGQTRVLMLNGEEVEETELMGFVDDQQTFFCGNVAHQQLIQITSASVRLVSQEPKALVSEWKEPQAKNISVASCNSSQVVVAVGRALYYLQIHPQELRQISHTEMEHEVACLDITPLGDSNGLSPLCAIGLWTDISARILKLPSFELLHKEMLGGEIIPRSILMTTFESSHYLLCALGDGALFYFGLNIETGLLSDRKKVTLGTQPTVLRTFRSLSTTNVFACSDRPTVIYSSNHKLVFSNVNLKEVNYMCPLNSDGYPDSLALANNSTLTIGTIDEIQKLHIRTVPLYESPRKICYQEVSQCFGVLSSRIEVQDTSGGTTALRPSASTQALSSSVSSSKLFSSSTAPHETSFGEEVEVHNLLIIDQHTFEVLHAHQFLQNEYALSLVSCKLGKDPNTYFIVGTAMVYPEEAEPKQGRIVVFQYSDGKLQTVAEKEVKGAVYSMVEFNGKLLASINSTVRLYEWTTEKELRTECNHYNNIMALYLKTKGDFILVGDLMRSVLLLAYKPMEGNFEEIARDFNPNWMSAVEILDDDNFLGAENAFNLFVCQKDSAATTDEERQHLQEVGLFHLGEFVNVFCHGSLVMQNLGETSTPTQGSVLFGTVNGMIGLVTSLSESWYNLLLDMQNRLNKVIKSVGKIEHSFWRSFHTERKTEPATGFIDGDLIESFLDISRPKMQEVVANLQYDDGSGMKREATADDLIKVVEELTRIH
The test is described as follows: Western-blot assay of substrate protein degradation in hPBMCs, IKZF2. Format: cell-based. To be noted: 24 hours of compound treatment, compounds tested at 50 nM and 500 nM (concentration of the table not stated).

The target in test [4] is T4, WEE1 (Homo sapiens, UniProt P30291+Q96SW2).
T4 construct: endogenous in cells; host or cells: hPBMCs (Milecell Biotechnologies)
T4 sequence (P30291 whole entry): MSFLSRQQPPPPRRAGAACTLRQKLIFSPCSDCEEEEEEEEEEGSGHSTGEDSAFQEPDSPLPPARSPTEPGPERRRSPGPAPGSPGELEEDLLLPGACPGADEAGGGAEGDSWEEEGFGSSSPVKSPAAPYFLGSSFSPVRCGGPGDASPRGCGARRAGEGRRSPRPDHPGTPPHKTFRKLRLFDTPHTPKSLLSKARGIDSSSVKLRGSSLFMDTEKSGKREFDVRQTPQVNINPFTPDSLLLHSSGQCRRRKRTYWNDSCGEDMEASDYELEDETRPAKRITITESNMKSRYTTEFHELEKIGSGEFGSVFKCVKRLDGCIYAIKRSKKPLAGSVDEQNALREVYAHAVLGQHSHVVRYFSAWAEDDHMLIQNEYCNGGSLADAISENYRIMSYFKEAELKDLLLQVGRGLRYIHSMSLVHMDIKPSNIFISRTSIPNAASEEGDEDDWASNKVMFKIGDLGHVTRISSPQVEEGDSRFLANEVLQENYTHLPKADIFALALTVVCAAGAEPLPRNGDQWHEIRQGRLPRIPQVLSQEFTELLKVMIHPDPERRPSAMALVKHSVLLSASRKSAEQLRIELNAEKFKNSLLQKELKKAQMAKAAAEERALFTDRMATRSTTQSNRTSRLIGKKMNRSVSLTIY
T4 sequence (Q96SW2 whole entry): as the sequence (Q96SW2 whole entry) above
T4 sequence (Q16531 whole entry partner): as the sequence (Q16531 whole entry partner) above
Briefly: Western-blot assay of substrate protein degradation in hPBMCs, WEE1. Format: cell-based. The following applies: 24 hours of compound treatment, compounds tested at 50 nM and 500 nM (concentration of the table not stated).

Test [5] has as its target T5, human Cereblon WT GST-tagged protein (Homo sapiens, UniProt Q96SW2).
T5 construct: purchased CISBIO 64BDCRBNPEH
The test is described as follows: CRBN-binding affinity by HTRF (CEREBLON BINDING kit). To be noted: HTRF inhibitory activity, CEREBLON BINDING kit; read-out: HTRF IC50.

Test [6] concerns the target T6, GSPT1 (Homo sapiens, UniProt P15170+Q96SW2).
T6 construct: endogenous in cells; host or cells: hPBMCs (Milecell Biotechnologies)
Briefly: Western-blot assay of substrate protein degradation in hPBMCs, GSPT1. Format: cell-based. To be noted: 24 hours of compound treatment, compounds tested at 50 nM and 500 nM (concentration of the table not stated).

Test [7] deals with T7, IKZF1 (Homo sapiens, UniProt Q13422+Q96SW2).
T7 construct: endogenous in cells; host or cells: hPBMCs (Milecell Biotechnologies)
T7 sequence (Q13422 whole entry): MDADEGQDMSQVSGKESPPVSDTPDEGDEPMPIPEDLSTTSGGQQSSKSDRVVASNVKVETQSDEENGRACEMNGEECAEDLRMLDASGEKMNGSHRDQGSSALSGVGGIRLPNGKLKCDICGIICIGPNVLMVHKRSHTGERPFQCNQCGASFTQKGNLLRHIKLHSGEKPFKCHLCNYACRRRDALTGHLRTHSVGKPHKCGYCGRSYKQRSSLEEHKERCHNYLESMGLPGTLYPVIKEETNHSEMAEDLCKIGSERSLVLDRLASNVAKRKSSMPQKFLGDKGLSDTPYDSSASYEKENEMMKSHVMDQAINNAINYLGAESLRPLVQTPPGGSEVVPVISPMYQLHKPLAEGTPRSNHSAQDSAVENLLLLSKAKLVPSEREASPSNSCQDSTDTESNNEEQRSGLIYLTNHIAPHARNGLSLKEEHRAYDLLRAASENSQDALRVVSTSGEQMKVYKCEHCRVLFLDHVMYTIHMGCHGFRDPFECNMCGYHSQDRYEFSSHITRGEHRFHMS
T7 sequence (Q96SW2 whole entry): as the sequence (Q96SW2 whole entry) above
T7 sequence (Q16531 whole entry partner): as the sequence (Q16531 whole entry partner) above
The test is described as follows: Western-blot assay of substrate protein degradation in hPBMCs, IKZF1. It is filed as cell-based. To be noted: 24 hours of compound treatment, compounds tested at 50 nM and 500 nM (concentration of the table not stated).

T6 sequence (P15170 whole entry): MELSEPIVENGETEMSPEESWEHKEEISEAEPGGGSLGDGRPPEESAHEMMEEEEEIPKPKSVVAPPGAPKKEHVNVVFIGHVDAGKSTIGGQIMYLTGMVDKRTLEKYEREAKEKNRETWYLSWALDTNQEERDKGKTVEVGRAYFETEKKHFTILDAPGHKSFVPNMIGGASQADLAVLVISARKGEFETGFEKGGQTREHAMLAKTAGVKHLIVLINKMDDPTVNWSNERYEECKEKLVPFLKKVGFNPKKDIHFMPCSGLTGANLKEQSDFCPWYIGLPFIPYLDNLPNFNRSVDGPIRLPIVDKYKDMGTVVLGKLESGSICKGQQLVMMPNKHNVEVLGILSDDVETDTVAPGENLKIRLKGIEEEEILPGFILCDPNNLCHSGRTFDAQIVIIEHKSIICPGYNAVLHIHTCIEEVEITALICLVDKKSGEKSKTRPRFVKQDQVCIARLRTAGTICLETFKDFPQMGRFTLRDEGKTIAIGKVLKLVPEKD
T6 sequence (Q96SW2 whole entry): as the sequence (Q96SW2 whole entry) above
T6 sequence (Q16531 whole entry partner): as the sequence (Q16531 whole entry partner) above
T1 sequence (P48729 whole entry): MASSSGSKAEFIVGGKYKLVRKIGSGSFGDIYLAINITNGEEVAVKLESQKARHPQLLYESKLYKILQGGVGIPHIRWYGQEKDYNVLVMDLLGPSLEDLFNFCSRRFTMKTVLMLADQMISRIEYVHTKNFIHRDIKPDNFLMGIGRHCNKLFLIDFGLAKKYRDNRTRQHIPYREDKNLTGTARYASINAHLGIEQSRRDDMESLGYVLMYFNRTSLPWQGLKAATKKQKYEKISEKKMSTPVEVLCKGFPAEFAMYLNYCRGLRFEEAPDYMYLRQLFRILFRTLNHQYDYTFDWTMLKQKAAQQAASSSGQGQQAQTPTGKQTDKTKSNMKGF
T1 sequence (Q96SW2 whole entry): as the sequence (Q96SW2 whole entry) above
T1 sequence (Q16531 whole entry partner): as the sequence (Q16531 whole entry partner) above
T5 sequence (Q96SW2 whole entry): as the sequence (Q96SW2 whole entry) above

`O=C1CCC(N2Cc3cc(CN4CCN(c5ncnc6scc(-c7ccccc7)c56)CC4)ccc3C2=O)C(=O)N1` (stereo not shown) [GT-04709, 3-(1-oxo-5-((4-(5-phenylthieno[2,3-d]pyrimidin-4-yl)piperazin-1-yl)methyl)isoindolin-2-yl)piperidine-2,6-dione]: the “CK1a substrate protein remaining %” value in test [1] is listed as “A (0% ≤ substrate protein remaining % ≤ 80%)”. The “IKZF3 substrate protein remaining %” value in test [2] was “A (0% ≤ substrate protein remaining % ≤ 80%)”. The “IKZF2 substrate protein remaining %” value in test [3] is given as “B (80%< substrate protein remaining %≤ 100%)”. Besides, in test [4], the “Weel substrate protein remaining %” value is reported as “B (80%< substrate protein remaining %≤ 100%)”. Also, the IC50 in test [5] was < 500 nM. In addition, the “GSPT1 substrate protein remaining %” value in test [6] is given as “A (0% ≤ substrate protein remaining % ≤ 80%)”. In addition, the “IKZF 1 substrate protein remaining %” value in test [7] was “B (80%< substrate protein remaining %≤ 100%)”.

Take `O=C1CCC(N2Cc3cc(CN4CCC(n5c(=O)[nH]c6cc(F)ccc65)CC4)ccc3C2=O)C(=O)N1` (stereo not shown) [GT-04714, 3-(5-((4-(5-fluoro-2-oxo-2,3-dihydro-1H-benzo[d]imidazol-1-yl)piperidin-1-yl)methyl)-1-oxoisoindolin-2-yl)piperidine-2,6-dione]: the “CK1a substrate protein remaining %” value in test [1] is given as “A (0% ≤ substrate protein remaining % ≤ 80%)”. Besides, the “IKZF3 substrate protein remaining %” value in test [2] was “A (0% ≤ substrate protein remaining % ≤ 80%)”. Besides, the “IKZF2 substrate protein remaining %” value in test [3] is listed as “A (0% ≤ substrate protein remaining % ≤ 80%)”. Further, the “Weel substrate protein remaining %” value in test [4] was “A (0% ≤ substrate protein remaining % ≤ 80%)”. Besides, the IC50 in test [5] lay within 500 to 1000 nM. For the same compound, the “GSPT1 substrate protein remaining %” value in test [6] is reported as “A (0% ≤ substrate protein remaining % ≤ 80%)”. The “IKZF 1 substrate protein remaining %” value in test [7] was “A (0% ≤ substrate protein remaining % ≤ 80%)”.

Take `O=C1CCC(N2Cc3cc(CN4CCC(c5ccon5)CC4)ccc3C2=O)C(=O)N1` (stereo not shown) [GT-04715, 3-(5-((4-(isoxazol-3-yl)piperidin-1-yl)methyl)-1-oxoisoindolin-2-yl)piperidine-2,6-dione]: the “CK1a substrate protein remaining %” value in test [1] was “A (0% ≤ substrate protein remaining % ≤ 80%)”. For the same compound, in test [2], the “IKZF3 substrate protein remaining %” value is “A (0% ≤ substrate protein remaining % ≤ 80%)”. In addition, the “IKZF2 substrate protein remaining %” value in test [3] was “A (0% ≤ substrate protein remaining % ≤ 80%)”. Besides, the “Weel substrate protein remaining %” value in test [4] was “A (0% ≤ substrate protein remaining % ≤ 80%)”. For the same compound, in test [5], the IC50 is 1500 to 1900 nM. Also, the “GSPT1 substrate protein remaining %” value in test [6] was “A (0% ≤ substrate protein remaining % ≤ 80%)”. In test [7], the “IKZF 1 substrate protein remaining %” value was “A (0% ≤ substrate protein remaining % ≤ 80%)”.

As to `Cc1cc2c(C3CCN(Cc4ccc5c(c4)CN(C4CCC(=O)NC4=O)C5=O)CC3)ncnc2s1` (stereo not shown) [GT-04717, 3-(5-((4-(6-methylthieno[2,3-d]pyrimidin-4-yl)piperidin-1-yl)methyl)-1-oxoisoindolin-2-yl)piperidine-2,6-dione], the “CK1a substrate protein remaining %” value in test [1] was “B (80%< substrate protein remaining %≤ 100%)”. The “IKZF3 substrate protein remaining %” value in test [2] is recorded as “A (0% ≤ substrate protein remaining % ≤ 80%)”. Moreover, the “IKZF2 substrate protein remaining %” value in test [3] is “A (0% ≤ substrate protein remaining % ≤ 80%)”. The “Weel substrate protein remaining %” value in test [4] was “B (80%< substrate protein remaining %≤ 100%)”. Besides, the IC50 in test [5] is 500 to 1000 nM. Also, the “GSPT1 substrate protein remaining %” value in test [6] is listed as “A (0% ≤ substrate protein remaining % ≤ 80%)”. In addition, the “IKZF 1 substrate protein remaining %” value in test [7] is “B (80%< substrate protein remaining %≤ 100%)”.
